# pIC50: −log10 of the molar value.
# Molecular target: Genome polyprotein 3C proteinase (Hepatitis A virus)
# Test: Reversible inhibitory activity against Protease
row,pIC50,Structure (SMILES)
1,5.80,"CC(=O)N[C@@H](CC(C)C)C(=O)N[C@@H](C)C(=O)N[C@@H](C)C(=O)N[C@@H](C[C@@H]1CCNC1=O)C(=O)Cn1[nH]c(=O)c2c([N+](=O)[O-])cccc2c1=O [(S)-2-Acetylamino-4-methyl-pentanoic acid ((S)-1-{1-[(S)-3-(5-nitro-1,4-dioxo-3,4-dihydro-1H-phthalazin-2-yl)-2-oxo-1-((1S,4S)-2-oxo-pyrrolidin-3-ylmethyl)-propylcarbamoyl]-ethylcarbamoyl}-ethyl)-amide]"
2,5.70,"CC(=O)N[C@@H](CC(C)C)C(=O)N[C@@H](C)C(=O)N[C@@H](C)C(=O)N[C@@H](C[C@@H]1CCNC1=O)C(=O)Cn1[nH]c(=O)c2c(F)c(F)c(F)c(F)c2c1=O [(S)-2-Acetylamino-4-methyl-pentanoic acid ((S)-1-{1-[(S)-2-oxo-1-((1S,4S)-2-oxo-pyrrolidin-3-ylmethyl)-3-(5,6,7,8-tetrafluoro-1,4-dioxo-3,4-dihydro-1H-phthalazin-2-yl)-propylcarbamoyl]-ethylcarbamoyl}-ethyl)-amide]"
3,4.89,"CC(=O)N[C@@H](CC(C)C)C(=O)N[C@@H](C)C(=O)N[C@@H](C)C(=O)N[C@@H](CCC(=O)N(C)C)C(=O)Cn1[nH]c(=O)c2ccccc2c1=O [(S)-4-{(S)-2-[(S)-2-((S)-2-Acetylamino-4-methyl-pentanoylamino)-propionylamino]-propionylamino}-6-(1,4-dioxo-3,4-dihydro-1H-phthalazin-2-yl)-5-oxo-hexanoic acid dimethylamide]"
